Patent US20240252652A1, “PROTEINS HAVING UNNATURAL AMINO ACIDS AND METHODS OF USE” (The Regents of the University of California, priority 2021, published 2024)

What was measured:
GST dimer = assay: Cross-linking of GST-103SFY-107X in live mammalian cells; assay type: cell-based; details: HEK293T cells, Western blot
From the text: To determine which amino acid residues could react with SFY via proximity-enabled reactivity directly in cells, we coexpressed in E. coli the Z protein and an affibody (Afb) specifically binding it. Based on the crystal structure of Afb-Z complex, we introduced SFY at site 24 of the Z protein and various natural residues at site 7 of the affibody (FIG. 11D), placing the two residues in close proximity upon Afb-Z binding. (Wang et al. J. Am Chem. Soc. 140:4995-4999 (2018)). After expression of Afb(24SFY) and Z(7X) (X=target residue) for 6 h. cells were lysed and analyzed with Western blot under denatured conditions (FIG. 11E). Crosslinking bands corresponding to the adduct of Afb and Z were detected for target residue His. Tyr, and Lys, for both Mm-tRNA^Pyl/MmSFYRS and Ma-tRNA^Pyl/MaSFYRS. We then purified 6×His-tagged Z and Afb proteins from cells and analyzed with SDS-PAGE. Consistently, a protein band corresponding to the cross-linked Z with Afb was clearly observed for Afb-7Lys. Afb-7His, and Afb-7Tyr (FIG. 11E). We further tested if SFY could crosslink with these residues in mammalian cells. […] (Liu et al. J. Am Chem. 141:9458-9462 (2019)). We incorporated SFY at site 103 of GST and mutated residue 107 to various target residues. HEK293T cells expressing these GST mutants were lysed and Western blotted to detect covalent GST dimer formation (FIG. 11G). […]

[1] = tested on: nucleoside monophosphates (AMP, UMP, CMP, GMP); assay: In vitro incubations of NMPs and SFY (MS detection of adducts); assay type: biochemical; details: 50 mM SFY, 50 mM NMP, 37° C., 16 hours
Description: In addition, to check if SFY could cross-link all four nucleotides, we incubated 50 mM SFY with 50 mM different nucleoside monophosphates (NMPs: AMP, UMP, CMP, or GMP) at 37° C. for 16 hours.
In vitro incubations of NMPs and SFY. 50 mM SFY (HCl salt) and 50 mM NMP was incubated in DI H2O. 50 mM NaOH was added to neutralize the HCl salt. The mixture was incubated at 37° C. for […]. Then the reaction mixture was diluted for 50 times in H2O/acetonitrile (50/50, v/v, with 0.1% trifluoracetic acid) and subjected to mass spectrum analysis using positive mode. Mass spectrum analysis was performed on SCIEX MDS, 3200 Q TRAP system.
The molecular weight (MW) of addict products between SFY and NMP was calculated following this equation: MW (adduct product)=MW (SFY)+MW (NMP)−MW (HF).

HEK293T cells = assay: Cell viability assay (CellTiter-Blue); assay type: cell-based, human; details: 0-1 mM SFY, 24 h or 48 h
Description: Error bars represent s.e.m.; n=3 independent tests.
Cell viability assay. 2×10^4 cells/well of HEK293T cells were seeded in a 96-well plate. On the next day, the media were replaced with fresh DMEM media supplemented with 0, 0.0625, 0.125, 0.25, 0.5, or 1 mM of SFY. The SFY-treated and control cells were cultured for an additional 24-48 h at 37° C. and then analyzed with CellTiter-Blue R Cell Viability Assay following the manufacturer's instructions.

SMILES: COc1ccc(C[C@H](N)C(=O)O)cc1S(=O)(=O)F [SFY, (S)-1-carboxy-2-(3-(fluorosulfonyl)-4-methoxyphenyl)ethan-1-aminium]
- target residues reacting (covalent GST dimer) (GST dimer): react with His. Tyr, and Lys
- cross-linking adducts with NMPs [1]: adducts of SFY with all four NMPs were detected
- toxicity to HEK293T cells (HEK293T cells): did not observe obvious toxicity
